# Data published in patent US20250326785A1, “SODIUM SALT AND ETHANOLAMINE SALT OF 23-HYDROXYTORMENTIC ACID” (HUYABIO International, LLC, priority 2024, published 2025).
# Read-outs that look alike come from different tables or passages of the source.
# How the values were obtained:
# [1] = for HPLC Conc./: based on free acid
# Excerpt: pH-dependent solubility of the HBI- 3808 sodium salt of Pattern 2 was studied.
# pH dependent solubility of the HBI- 3808 sodium salt of Pattern 5 was studied.
# [2] = Stability study at 25° C./60% RH, 40° C./75% RH and 60° C. (XRPD, HPLC purity, impurity tracking); conditions: for XRPD: number = sodium salt XRPD Pattern; for RRT 0.801 / RRT 0.959 / RRT 1.000 (HBI-3808) / RRT 1.025 (Isomer of HBI-3808) / RRT 1.767 / Total Impurities / RRT 1.932: impurity tracking
# Excerpt: Stability of HBI-3808 Sodium Salt Pattern 2 was studied over 13 weeks.
# Table 2F presents impurity tracking results from a 13-week stability study of HBI-3808 sodium salt of Pattern 2. […]
# [3] = Dynamic vapor sorption (DVS) analysis; format: physicochemical
# Procedure: GC analysis indicated residual solvent contents of 2847 ppm methanol; and 27 ppm TBME. […] No residual methanol or TBME was detected due to signal over-lap. […] TG-DSC analysis indicated two weight losses. The first weight loss of 2.3 wt. % was observed between 20-170° C. […] In the DSC thermogram, three endothermic events were observed (FIG. 17I). […] FT-IR (FIG. 17J) and Raman spectra (FIG. 17K) were recorded for reference. […] XRPD pattern of the ethanolamine salt was retained post-DVS (FIG. 17N). […] However, at the end of the experiment the solids on the microscope slide had discolored (FIG. 17O).
# [4] = Hydration study in methanol/water aw 0.1, 0.5 and 0.9; format: physicochemical
# Excerpt: Hydration studies of ethanolamine salt.
# [5] = Varying humidity (VH)-XRPD; format: physicochemical
# Procedure: During the sorption phase, sodium salt Pattern 2 was observed between 40-60% RH. […] A mixture of sodium salt Pattern 2 and 5 was also observed at 80% RH. […] During the second desorption, from 90% RH to 40% RH, sodium salt Pattern 5 was maintained.
# VH-XRPD analysis was carried out between 40-0% RH (FIG. 5L).
# [6] = 40° C./75% RH (open vial), 1 Week
# [7] = 40° C./75% RH (open vial), 2 Weeks
# [8] = 40° C./75% RH (open vial), 4 Weeks
smiles,measurement,setting,value
"CC1CCC2(C(=O)[O-])CCC3(C)C(=CCC4C5(C)CC(O)C(O)C(C)(CO)C5CCC43C)C2C1(C)O.[Na+] (stereo not shown) [HBI-3808 sodium salt of Pattern 5, sodium salt of 23-hydroxytormentic acid]",final Measured pH,[1]; FaSSGF,9.34
same,HPLC Conc./,[1]; FaSSGF,>150.33 mg/mL
same,concentration,[1]; pH 1.2,< 1000 ng/mL
same,HPLC Conc./,"[1]; target pH 1.2 chloride buffer, start 200 mg/mL (ethanolamine salt 100 mg/mL)",<0.001 mg/mL
same,HPLC Conc./,[1]; target pH 3.0 acetate buffer,<0.001 mg/mL
same,HPLC Conc./,[1]; target pH 4.0 acetate buffer,<0.001 mg/mL
same,HPLC Conc./,[1]; target pH 6.8 phosphate buffer,0.25 mg/mL
same,HPLC Conc./,[1]; target pH 8.0 phosphate buffer,12.84 mg/mL
same,HPLC/ % area,"[2]; 25° C./60% RH (open vial), 1 Week",96.4 % area
same,XRPD,"[2]; 25° C./60% RH (open vial), 1 Week, * Traces of sodium salt Pattern 2",5
same,HPLC/ % area,"[2]; 25° C./60% RH (open vial), 2 Weeks",96.7 % area
same,XRPD,"[2]; 25° C./60% RH (open vial), 2 Weeks, * Traces of Pattern 2",5
same,HPLC/ % area,"[2]; 25° C./60% RH (open vial), 4 Weeks",96.3 % area
same,XRPD,"[2]; 25° C./60% RH (open vial), 4 Weeks, * Traces of Pattern 2",5
same,HPLC/ % area,[2]; [6],96.7 % area
same,XRPD,[2]; [6],5
same,HPLC/ % area,[2]; [7],97.5 % area
same,XRPD,[2]; [7],5
same,HPLC/ % area,[2]; [8],96.6 % area
same,XRPD,[2]; [8],5
same,HPLC/ % area,"[2]; 60° C. (closed vial), 1 Week",96.1 % area
same,XRPD,"[2]; 60° C. (closed vial), 1 Week",5
same,HPLC/ % area,"[2]; 60° C. (closed vial), 2 Weeks",97.3 % area
same,XRPD,"[2]; 60° C. (closed vial), 2 Weeks",5
same,HPLC/ % area,"[2]; 60° C. (closed vial), 4 Weeks",96.1 % area
same,XRPD,"[2]; 60° C. (closed vial), 4 Weeks",5
same,change in chemical purity by HPLC over the stability study,"[2]; all conditions (25° C./60% RH; 40° C./75% RH; 60° C.), 13 weeks (Pattern 5: 4 weeks)",no significant decrease in chemical purity
same,XRPD pattern over the stability study,"[2]; all conditions, 4 weeks (Pattern 5), 13 weeks (ethanolamine salt)",Sodium salt Pattern 5 was retained
same,RRT 0.801,"[2]; 25° C./60% RH, 1 week",0.37 % area
same,RRT 0.959,"[2]; 25° C./60% RH, 1 week",0.14 % area
same,RRT 1.000 (HBI-3808),"[2]; 25° C./60% RH, 1 week",96.39 % area
same,RRT 1.025 (Isomer of HBI-3808),"[2]; 25° C./60% RH, 1 week",2.67 % area
same,RRT 1.767,"[2]; 25° C./60% RH, 1 week",0.43 % area
same,Total Impurities,"[2]; 25° C./60% RH, 1 week",3.61 % area
same,RRT 0.801,"[2]; 25° C./60% RH, 2 weeks",0.30 % area
same,RRT 1.000 (HBI-3808),"[2]; 25° C./60% RH, 2 weeks",96.96 % area
same,RRT 1.025 (Isomer of HBI-3808),"[2]; 25° C./60% RH, 2 weeks",2.74 % area
same,Total Impurities,"[2]; 25° C./60% RH, 2 weeks",3.04 % area
same,RRT 0.801,"[2]; 25° C./60% RH, 4 weeks",0.26 % area
same,RRT 0.959,"[2]; 25° C./60% RH, 4 weeks",0.13 % area
same,RRT 1.000 (HBI-3808),"[2]; 25° C./60% RH, 4 weeks",96.33 % area
same,RRT 1.025 (Isomer of HBI-3808),"[2]; 25° C./60% RH, 4 weeks",2.76 % area
same,RRT 1.767,"[2]; 25° C./60% RH, 4 weeks",0.30 % area
same,RRT 1.932,"[2]; 25° C./60% RH, 4 weeks",0.21 % area
same,Total Impurities,"[2]; 25° C./60% RH, 4 weeks",3.67 % area
same,RRT 0.801,"[2]; 40° C./75% RH, 1 week",0.34 % area
same,RRT 0.959,"[2]; 40° C./75% RH, 1 week",0.13 % area
same,RRT 1.000 (HBI-3808),"[2]; 40° C./75% RH, 1 week",96.67 % area
same,RRT 1.025 (Isomer of HBI-3808),"[2]; 40° C./75% RH, 1 week",2.52 % area
same,RRT 1.767,"[2]; 40° C./75% RH, 1 week",0.34 % area
same,Total Impurities,"[2]; 40° C./75% RH, 1 week",3.33 % area
same,RRT 0.801,"[2]; 40° C./75% RH, 2 weeks",0.37 % area
same,RRT 1.000 (HBI-3808),"[2]; 40° C./75% RH, 2 weeks",97.47 % area
same,RRT 1.025 (Isomer of HBI-3808),"[2]; 40° C./75% RH, 2 weeks",2.16 % area
same,Total Impurities,"[2]; 40° C./75% RH, 2 weeks",2.53 % area
same,RRT 0.801,"[2]; 40° C./75% RH, 4 weeks",0.42 % area
same,RRT 0.959,"[2]; 40° C./75% RH, 4 weeks",0.16 % area
same,RRT 1.000 (HBI-3808),"[2]; 40° C./75% RH, 4 weeks",96.60 % area
same,RRT 1.025 (Isomer of HBI-3808),"[2]; 40° C./75% RH, 4 weeks",2.34 % area
same,RRT 1.767,"[2]; 40° C./75% RH, 4 weeks",0.25 % area
same,RRT 1.932,"[2]; 40° C./75% RH, 4 weeks",0.22 % area
same,Total Impurities,"[2]; 40° C./75% RH, 4 weeks",3.40 % area
same,RRT 0.801,"[2]; 60° C., 1 week",0.28 % area
same,RRT 0.959,"[2]; 60° C., 1 week",0.15 % area
same,RRT 1.000 (HBI-3808),"[2]; 60° C., 1 week",96.23 % area
same,RRT 1.025 (Isomer of HBI-3808),"[2]; 60° C., 1 week",2.94 % area
same,RRT 1.767,"[2]; 60° C., 1 week",0.40 % area
same,Total Impurities,"[2]; 60° C., 1 week",3.77 % area
same,RRT 0.801,"[2]; 60° C., 2 weeks",0.38 % area
same,RRT 1.000 (HBI-3808),"[2]; 60° C., 2 weeks",97.33 % area
same,RRT 1.025 (Isomer of HBI-3808),"[2]; 60° C., 2 weeks",2.29 % area
same,Total Impurities,"[2]; 60° C., 2 weeks",2.67 % area
same,RRT 0.801,"[2]; 60° C., 4 weeks",0.37 % area
same,RRT 0.959,"[2]; 60° C., 4 weeks",0.19 % area
same,RRT 1.000 (HBI-3808),"[2]; 60° C., 4 weeks",96.13 % area
same,RRT 1.025 (Isomer of HBI-3808),"[2]; 60° C., 4 weeks",2.71 % area
same,RRT 1.767,"[2]; 60° C., 4 weeks",0.36 % area
same,RRT 1.932,"[2]; 60° C., 4 weeks",0.23 % area
same,Total Impurities,"[2]; 60° C., 4 weeks",3.87 % area
same,RRT 0.801,[2]; T = 0,0.35 % area
same,RRT 1.000 (HBI-3808),[2]; T = 0,96.83 % area
same,RRT 1.025 (Isomer of HBI-3808),[2]; T = 0,2.66 % area
same,RRT 1.767,[2]; T = 0,0.17 % area
same,Total Impurities,[2]; T = 0,3.17 % area
same,input purity by HPLC,[2]; input material of the stability study (baseline),96.8 % area
same,XRPD of recovered material post-DVS,[3],consistent with HBI-3808 sodium salt of Pattern 5
same,reversibility of mass uptake/loss,[3]; Pattern 2: second DVS cycle,reversible
same,water (mass) uptake,[3]; at 80% RH/25° C. (Pattern 2: second DVS cycle),0.8 wt. %
same,XRPD of solids recovered at the end of the experiment,[4],consistent with sodium salt Pattern 2
same,XRPD pattern / form stability over relative humidity,[5]; 0-90% RH,stable to relative humidity between 90-0% RH
same,XRPD pattern during desorption,"[5]; 40-0% RH, 30° C.",no change in diffractogram
